{
  "source": "patent US20160129021A1",
  "about": "“STERILIZATION METHOD” (UNIVERSITY OF PITTSBURGH - OF THE COMMONWEALTH SYSTEM OF …, priority 2013, published 2016)",
  "key": {"[1]": {"test_system": "FGF and GDNF-mediated phosphorylation of ERK", "assay": "FGF/GDNF-stimulated ERK phosphorylation in GS cell cultures (western blot)", "type": "cell-based, mouse", "details": "FGF 20 ng/ml or GDNF 20 ng/ml, pretreatment with 50 μM", "protocol": "(§1) FIG. 7A-F. Inhibition of SHP2 blocks GDNF and FGF signaling causes SSCs to detach from their niche decreases the number of SSCs in culture and disrupts spermatogenesis in vivo. […] Western blot analysis of p-ERK and ERK levels after the treatments is shown. […] The percentage of cells detached from feeder cells was determined (n=3, *=p<0.05). C) The epididymis of control and GCSHP2KO mice were stained with periodic acid Schiffs-hematoxylin. Immature germ cells in GCSHP2KO epididymis are identified with arrows. D) GS cells treated with vehicle or NSC (50 μM) as in B were isolated from feeder cells, dispersed and counted. E) Clumps of GS cells (white arrows) and feeder cells (yellow arrows) treated as in D were assayed for live (green) and dead (red) cells.\nIsolation of THY1+ germ cells from 6-day-old DBA/2 mice was performed as described previously to produce GS cell cultures (Oatley and Brinster, 2006) (more details in Supplemental Experimental Procedures). […] SSCs were detached from feeders and FGF or GDNF were added for 10 min. Detached SSCs were then pelleted (600×g, 7 min) and the pellets were lysed in Laemmli sample buffer.\nWCE boiled in Laemmli sample buffer were fractionated by 10% SDS-PAGE and transferred to Immobilon-P, PVDF membranes 90 (Millipore Corp., Bedford, Mass.). […]"}, "GS cells [2]": {"test_system": "GS cells", "assay": "Detachment of GS cells from feeder cells", "type": "cell-based, mouse", "details": "50 μM, 5 days, vs vehicle", "protocol": "as §1\n(§2) Preparation of GS cell cultures from 6-day-old DBA/2 mice was performed as described previously (Oatley and Brinster, 2006). Briefly, a testicular cell suspension was isolated by enzymatic digestion with DNase and trypsin and filtered through a 40 uM mesh to remove cell clumps. Germ cells were then enriched from these suspensions through a 30% percoll gradient. The germ cell suspensions were subjected to magnetic activated cell sorting (MACS) to select Thy1+ cells to enrich for SSCs. […]"}, "[3]": {"test_system": "spermatogenesis in testes of adult mice", "assay": "One injection into the testes of adult mice, sperm production", "type": "in vivo, mouse"}, "GS cells [4]": {"test_system": "GS cells", "assay": "GS cell number after isolation from feeder cells, dispersed and counted", "type": "cell-based, mouse", "details": "50 μM, 5 day treatment, vs vehicle", "protocol": "as §1\nAll immunostained cells and tubules from an entire testis section were counted and the number of stained cells per tubule was determined. GS cell viability was determined using the LIVE/DEAD Viability Assay kit for mammalian cells (Life Technologies)\nas §2, with “gradient.” for “gradient. The germ cell suspensions were subjected to magnetic activated cell sorting (MACS) to select Thy1+ cells to enrich for SSCs.”"}, "[5]": {"test_system": "spermatogenesis in adult mice", "assay": "ip injection into adult mice, testis sections stained with PAS-H", "type": "in vivo, mouse", "details": "15 days later", "protocol": "as §1, with “cells. […] Furthermore, the populations of spermatocytes and spermatids were reduced.” for “cells.”"}, "spleen tissue": {"test_system": "spleen tissue", "assay": "Spleen tissue after injection into testes", "type": "in vivo, mouse", "details": "same animal as FIG. 11 (10 mg/kg into testes), 15 days after injection"}, "[6]": {"details": "5 mg/kg ip daily for 3 or 7 days"}},
  "data": [
    {"smiles": "O=S(=O)(O)c1ccc2cc(/N=N/c3cc(S(=O)(=O)O)c4cccnc4c3O)ccc2c1", "note": "[NSC-87877, 8-Hydroxy-7-[(6-sulfo-2-naphthyl)azo]-5-quinolinesulfonic acid]", "values": [
      {"measurement": "FGF and GDNF-mediated phosphorylation (activation) of ERK", "setting": "[1]", "value": "decreased FGF and GDNF mediated activation of ERK"},
      {"measurement": "FGF and GDNF-mediated phosphorylation (activation) of ERK", "setting": "[1]; listed as NSC-878777", "value": "inhibited the FGF and GDNF-mediated phosphorylation of ERK"},
      {"measurement": "increase in the number of GS cells detached from the feeder cells", "setting": "GS cells [2]", "value": 3, "unit": "fold"},
      {"measurement": "sperm production, long term", "setting": "[3]; one injection of 10 mg/kg into the testes, adult mice, 70 days", "value": "loss of sperm production in some regions of the testes"},
      {"measurement": "spermatogenesis (sperm production)", "setting": "[3]; one injection of 40 mg/kg into the testes, adult mice, 15 days later", "value": "sufficient to disrupt spermatogenesis"},
      {"measurement": "fertility", "setting": "[3]; single dose of 10 mg/kg or 40 mg/kg, mouse", "value": "effective in decreasing fertility"},
      {"measurement": "reduction of the number of GS cells", "setting": "GS cells [4]", "value": 22, "unit": "%"},
      {"measurement": "further disruption of spermatogenesis (elongated spermatids)", "setting": "[5]; [6]", "value": "mis-localization and mis-orientation of elongated spermatids"},
      {"measurement": "populations of spermatocytes and spermatids", "setting": "[5]; [6]", "value": "reduced"},
      {"measurement": "spermatogonia in tubules at the periphery of the testes", "setting": "[5]; [6]", "value": "absence of spermatogonia"},
      {"measurement": "germ cells in some tubule cross sections", "setting": "[5]; 5 mg/kg ip daily for 7 days", "value": "nearly all germ cells were absent"},
      {"measurement": "damage of spleen tissue", "setting": "spleen tissue", "value": "not damaged"}
    ]}
  ]
}
